The term IC50 denotes the concentration that gives 50% inhibition. Higher therefore signals a need for much substance.

Structures are written as SMILES.

The test system of series [1] is Mus musculus. The series can be described thus: Toxicity in mouse […] cells transplanted ICR mouse assessed as mouse body weight at 30 mg/kg, iv administered 7 days post tumor transplantation (reference value: 18.3 to 18.6g). The format is organism-based. More on the design: dose 30 mg/kg, route intravenous. Conditions: in vivo, 168 h.
The test system of series [2] is B16. The series can be described thus: Antitumor activity against mouse B16 cells transplanted in ICR mouse assessed as tumor growth inhibition at 30 mg/kg, ip administered 7 days post tumor transplantation. The format is functional. Conditions: 168 h, route intraperitoneal.
In series [3] the test system is H22. The series is described as follows: Antitumor activity against […] H22 cells transplanted in ICR mouse assessed as tumor growth inhibition at 30 mg/kg, ip administered 7 days post tumor transplantation. Conditions: 168 h, route intraperitoneal. The class given is functional.
Another series has as its system HeLa. The series is described as follows: Antiproliferative activity against human HeLa cells after 72 hrs MTT assay. The class given is functional, cell-based. In general terms: Formazan colour is commonly taken as a measure of viable cells.
In series [4] the test system is Mus musculus. The series is described as follows: Toxicity in mouse […] cells transplanted ICR mouse assessed as mouse survival at 30 mg/kg, ip administered 7 days post tumor transplantation. More on the design: dose 30 mg/kg, route intraperitoneal. The format is organism-based. Conditions: in vivo, 168 h.
Series [5] in a line: Antiproliferative activity against human Bel7402 cells after 72 hrs MTT assay. The class given is functional, cell-based. Conditions: Bel-7402, 72 h.
Series [6] in a line: Antiproliferative activity against human SF763 cells after 72 hrs MTT assay. The class given is functional, cell-based. Conditions: SF763, 72 h.
The subject of series [7] is Mus musculus. The series is described as follows: Toxicity in […] H22 cells transplanted ICR mouse assessed as mouse survival at 30 mg/kg, ip administered 7 days post tumor transplantation. The format is organism-based. More on the design: dose 30 mg/kg, route intraperitoneal. Conditions: in vivo, 168 h.
Series [8] relates to Mus musculus. The series can be described thus: Toxicity in […] H22 cells transplanted ICR mouse assessed as mouse body weight at 30 mg/kg, ip administered 7 days post tumor transplantation (reference value: 18.4 to 18.9g). More on the design: dose 30 mg/kg, route intraperitoneal. The format is organism-based. Conditions: in vivo, 168 h.
Series [9] concerns B16. The series can be described thus: Antiproliferative activity against mouse B16 cells after 72 hrs MTT assay. Conditions: B16, 72 h. The class given is functional, cell-based.
Series [10] is described as follows: Antiproliferative activity against human HL60 cells after 72 hrs MTT assay. The format is functional, cell-based. Conditions: HL-60, 72 h.
The test system of series [11] is H22. The series can be described thus: Antitumor activity against human H22 cells transplanted in ICR mouse assessed as tumor growth inhibition at 30 mg/kg, iv administered 7 days post tumor transplantation. Conditions: 168 h, read-out: INH.
Series [12] concerns Mus musculus. The series can be described thus: Toxicity in mouse B6 cells transplanted ICR mouse assessed as mouse body weight at 30 mg/kg, iv administered 7 days post tumor transplantation (reference value: 18.2 +/- 0.5g). The format is organism-based. Details: dose 30 mg/kg, route intravenous. Conditions: in vivo, 168 h.
Series [13] concerns Mus musculus. The series is described as follows: Toxicity in mouse […] cells transplanted ICR mouse assessed as mouse survival at 30 mg/kg, iv administered 7 days post tumor transplantation. Conditions: in vivo, 168 h. The format is organism-based. Details: dose 30 mg/kg, route intravenous.
For series [14], the system named is B16. The series can be described thus: Antitumor activity against mouse B16 cells transplanted in ICR mouse assessed as tumor growth inhibition at 30 mg/kg, iv administered 7 days post tumor transplantation. The class given is functional. Conditions: B16, 168 h.

Turning to `C=C(C)[C@@H]1CC[C@]2(C(=O)O)CC[C@]3(C)[C@H](CC[C@@H]4[C@@]5(C)CC[C@H](O)[C@@](C)(CO)[C@@H]5CC[C@]43C)[C@@H]12`, the Activity was 26.7 g in the series on Mus musculus [1], “Non-toxic” with Mus musculus [4], “Non-toxic” in the series on Mus musculus [7] and 26.1 g with Mus musculus [8]. Also, the inhibition in vivo at 30 mg/kg in the series on B16 [2] worked out at 32.4%; with H22 [3], 27.8%. The IC50 came to 52.4 µM in the series with HeLa; 39.7 µM in [5]; 43.4 µM in series [6]; 29.9 µM in the series with B16 [9]; 45.1 µM in series [10].
Take `C=C(C)[C@@H]1CC[C@]2(C(=O)NCCN)CC[C@]3(C)[C@H](CC[C@@H]4[C@@]5(C)CCC(=O)[C@@](C)(COC(C)=O)[C@@H]5CC[C@]43C)[C@@H]12`: the Activity in the series on Mus musculus [1] is reported as 26.9 g; in the series on Mus musculus [4], “Non-toxic”; in the series with Mus musculus [7], “Non-toxic”; in the series on Mus musculus [8], 27.2 g. For the same molecule, the inhibition in vivo at 30 mg/kg with B16 [2] was 62.7%; in the series on H22 [3], 51.8%. Besides, the concentration for half-maximal inhibition (IC50) with HeLa was 10.6 µM; in [5], 7.22 µM; in series [6], 6.23 µM; in the series with B16 [9], 5.58 µM; in series [10], 8.64 µM.
For `C=C(C)[C@@H]1CC[C@]2(C(=O)OCC)CC[C@]3(C)[C@H](CC[C@@H]4[C@@]5(C)CCC(=O)[C@@](C)(CO)[C@@H]5CC[C@]43C)[C@@H]12`, the IC50 was 37.1 µM in the series on HeLa; 30.9 µM in series [5]; 28.9 µM in series [6]; 19.4 µM in the series with B16 [9]; 31.9 µM in series [10].
Regarding `C=C(C)[C@@H]1CC[C@]2(C(=O)OCC(=O)OCC)CC[C@]3(C)[C@H](CC[C@@H]4[C@@]5(C)CCC(=O)[C@@](C)(CO)[C@@H]5CC[C@]43C)[C@@H]12`, the IC50 with HeLa is 40.8 µM; in [5], 30.7 µM; in series [6], 24.7 µM; in the series on B16 [9], 25.7 µM; in series [10], 37.1 µM.
In the case of `C=C(C)[C@@H]1CC[C@]2(C(=O)O)CC[C@]3(C)[C@H](CC[C@@H]4[C@@]5(C)CCC(=O)[C@@](C)(CO)[C@@H]5CC[C@]43C)[C@@H]12`, the Activity in the series with Mus musculus [1] is given as 27.3 g; in the series with Mus musculus [4] it was “Non-toxic”; in the series on Mus musculus [7] it was “Non-toxic”; with Mus musculus [8], 26.8 g. Also, the inhibition in vivo at 30 mg/kg is 48.1% in the series with B16 [2] and 39.5% in the series with H22 [3]. For the same molecule, the half-inhibitory concentration (IC50) with HeLa amounted to 39.2 µM; in series [5] it was 33.8 µM; in series [6], 29.3 µM; in the series with B16 [9], 20.6 µM; in [10] it was 36.1 µM.
Consider `C=C(C)[C@@H]1CC[C@]2(C(=O)OCc3ccccc3)CC[C@]3(C)[C@H](CC[C@@H]4[C@@]5(C)CCC(=O)[C@@](C)(CO)[C@@H]5CC[C@]43C)[C@@H]12`, for which the IC50 in the series with HeLa was determined as 26.1 µM; in series [5], 20.1 µM; in [6], 19.5 µM; in the series with B16 [9], 14.1 µM; in [10], 23.7 µM.
Take `O=P1(N(CCCl)CCCl)NCCCO1` (configuration not stated) [CYCLOPHOSPHAMIDE ANHYDROUS]: in the series with H22 [11], the inhibition in vivo at 30 mg/kg is 53.7%.
Turning to `O=c1[nH]cc(F)c(=O)[nH]1` [FLUOROURACIL], the results for the Activity in the series with Mus musculus [12] and with Mus musculus [13] were 26.2 g and “Non-toxic”, respectively. The inhibition in vivo at 30 mg/kg in the series on B16 [14] stood at 70.3%.

These data come from ChEMBL document CHEMBL3351759, “Synthesis and antitumor activity of novel 3-oxo-23-hydroxybetulinic acid derivatives” (Eur J Med Chem, 2014).
